Key:
[1] = Monkey oral pharmacokinetic (PK) study, non-naïve Cynomolgus male monkeys; assay type: in vivo; conditions: for plasma concentration-time profile: PO, over about 24 hours after oral dosing; for Tmax / bioavailability: male, cynomolgus monkey, plasma; for Tmax / bioavailability / AUC0-24 h / Cmax: oral
Description: (§1) Appropriate volumes of vehicles (e.g., 2% Tween 80 (v:v) and 0.5% MC (w:v) in saline or 0.5% MC (w:v) in water were then added into the mortar containing the ground compounds, and the mixture was then grinded with a pestle until a homogeneous paste was formed. Additional appropriate volumes of vehicles were added into the mortar containing each compound, and the mixture was grinded further with the pestle until a homogeneous suspension was obtained.
(§2) The rest of the vehicle was added to make up the final dosing volume of about 1 mg/mL or 2 mg/mL (i.e., final dosing volume of about 5 mL/kg), and the homogenous suspension was continuously stirred prior to and during the dosing.
(§3) Non-naïve Cynomolgus male monkeys (n=3/test article; sourced from Hainan Jingang Biotech Co., Ltd., Nayang Xmtan, Fucheng Town, Qiongshan District, Haikou City, Hainan Province, China); or non-naïve aged, obese, and diabetic male Macaca fascicularis monkeys (n=3/test article, Source: Kunming Biomed International Colony) were used in pre-clinical in vivo studies. All non-naïve Cynomolgus male monkeys were approximately 3 to 5 years old, weighed about 2.5-5 kg, and were within ±20% of the average body weight. All non-naïve aged, obese, and diabetic male Macaca fascicularis monkeys were approximately 12 to 20 years old, weighed about >8-12 kg.
(§4) All animals were fasted overnight before dosing, and the food were supplied approximately 4 hours post dose (with free access to water all the time).
(§5) Animals were restrained at designated time points for blood sampling. Approximately 500 μL of blood samples was taken via cephalic or saphenous vein into EDTA-K2 tubes. Blood samples were put on wet ice before centrifugation.
(§6) For oral administration (PO) of either Dose 1 or Dose 2: blood samples were collected at pre-dose, and at 15 min, 30 min, 1 hr, 2 hr, 4 hr, (6 hr for compounds 19 and 28 with cynomolgus monkeys only), 8 hr, 12 hr, and 24 hr post dose (i.e., 9 or 10 total time points for each compound at each dose).
(§7) The blood samples were centrifuged at approximately 2,000-4,000 rpm for about 10-15 minutes at 2-8′C, and each resulting plasma portion was then transferred into an individual tube.
(§8) LC-MS/MS methods were developed, and bioanalysis for the test articles in monkey plasma was performed according to the developed LC-MS/MS methods.
Undiluted plasma samples: An aliquot of 20-50 μL plasma sample was mixed with 200 μL of ACN or MeOH containing one of the internal standards (IS, e.g., Diclofenac or Terfenadine). The mixture was then vortexed for about 1-5 min, and centrifuged at about 4,000-5,800 rpm for about 10-15 min. An aliquot of 1 μL supernatant was used for LC-MS/MS analysis.
(§9) Pharmacokinetics parameters, including area under the curve (AUC0-t), maximum plasma concentration (Cmax), time to reach maximum plasma concentration (Tmax), oral bioavailability (F %), etc., were calculated using Phoenix software (Version 6.4) and non-compartment model.

[2] = Monkey oral pharmacokinetic (PK) study, aged, obese, and diabetic male monkeys; assay type: in vivo; conditions: Dose 2, non-naïve aged, obese, and diabetic male Macaca fascicularis monkeys
Description: as §1, §2, §3, §4, §5, §6, §7, §8
Undiluted plasma samples: An aliquot of 20-50 μL plasma sample was mixed with 200 μL of ACN or MeOH containing one of the internal standards (IS, e.g., Diclofenac or Terfenadine). […]
as §9

Compound | plasma concentration-time profile [1] | Tmax ([1]; Dose 2) [h] | bioavailability ([1]; Dose 2) [%] | AUC0-24 h ([1]; Dose 2) [Arbitrary units] | Cmax ([1]; Dose 2) [Arbitrary unit] | Tmax ([1]; Dose 1) [h] | bioavailability ([1]; Dose 1) [%] | AUC0-24 h ([1]; Dose 1) [Arbitrary units] | Cmax ([1]; Dose 1) [Arbitrary unit] | AUC0-24 h [2] [Arbitrary units] | Cmax [2] [Arbitrary unit] | Tmax ([2]; cynomolgus monkey, plasma) [h] | bioavailability ([2]; cynomolgus monkey, plasma) [%]
N#Cc1ccc(COc2cccc(C3=CCN(Cc4nc5ccc(C(=O)O)nc5n4C[C@@H]4CCO4)CC3)n2)c(F)c1 [Compound 225, (S)-2-((6-((4-cyano-2-fluorobenzyl)oxy)-3′,6′-dihydro-[2,4′-bipyridin]-1′(2′H)-yl)methyl)-3-(oxetan-2-ylmethyl)-3H-imidazo[4,5-b]pyridine-5-carboxylic add] | sustained at a more constant level | 4 | 9.93 | 1500 | 184 |  |  |  |  |  |  |  | 
O=C(O)c1ccc2nc(CN3CC=C(c4ccc(F)c(OCc5ccc(Cl)cc5F)c4)CC3)n(C[C@@H]3CCO3)c2c1 [Compound 29, (S)-2-((4-(3-((4-chloro-2-fluorobenzyl)oxy)-4-fluorophenyl)-3,6-dihydropyridin-1(2H)-yl)methyl)-1-(oxetan-2-ylmethyl)-1 h-benzo[d]imidazole-6-carboxylic acid] | sustained at a more constant level | 1.2 | 41 | 21800 | 3380 |  |  |  |  |  |  |  | 
O=C(O)c1ccc2nc(CN3CC=C(c4cccc(OCc5ccc(Cl)cc5F)c4)CC3)n(C[C@@H]3CCO3)c2c1 [Compound 28, (S)-2-((4-(3-((4-chloro-2-fluorobenzyl)oxy)phenyl)-3,6-dihydropyridin-1(2H)-yl)methyl)-1-(oxetan-2-ylmethyl)-1 h-benzo[d]imidazole-6-carboxylic add] | sustained at a more constant level |  |  |  |  | 3.3 | 56.1 | 24900 | 3910 |  |  |  | 
N#Cc1ccc(COc2cccc(C3=CCN(Cc4nc5ccc(C(=O)O)cc5n4C[C@@H]4CCO4)CC3)n2)c(F)c1 [Compound 19, (S)-2-((4-(6-(4-cyano-2-fluorobenzyloxy)pyridin-2-yl)-5,6-dihydropyridin-1(2H)-yl)methyl)-1-(oxetan-2-ylmethyl)-1 h-benzo[d]imidazole-6-carboxylic add] | sustained at a more constant level |  |  |  |  | 2.7 | 10.8 | 1130 | 125 | 2470 | 413 | 8.8 | 15.5
